Results as given in PMC10751545 (Science (New York, N.Y.), 2023).
Read-outs that look alike come from different tables or passages of the source.

Legend:
[1] = tested on: GPR158 R173A, E271A, and Y269A mutants
GPR158 [2] = biological target: T1, GPR158 (Homo sapiens, UniProt Q5T848)
T1 sequence (Q5T848 24-1215): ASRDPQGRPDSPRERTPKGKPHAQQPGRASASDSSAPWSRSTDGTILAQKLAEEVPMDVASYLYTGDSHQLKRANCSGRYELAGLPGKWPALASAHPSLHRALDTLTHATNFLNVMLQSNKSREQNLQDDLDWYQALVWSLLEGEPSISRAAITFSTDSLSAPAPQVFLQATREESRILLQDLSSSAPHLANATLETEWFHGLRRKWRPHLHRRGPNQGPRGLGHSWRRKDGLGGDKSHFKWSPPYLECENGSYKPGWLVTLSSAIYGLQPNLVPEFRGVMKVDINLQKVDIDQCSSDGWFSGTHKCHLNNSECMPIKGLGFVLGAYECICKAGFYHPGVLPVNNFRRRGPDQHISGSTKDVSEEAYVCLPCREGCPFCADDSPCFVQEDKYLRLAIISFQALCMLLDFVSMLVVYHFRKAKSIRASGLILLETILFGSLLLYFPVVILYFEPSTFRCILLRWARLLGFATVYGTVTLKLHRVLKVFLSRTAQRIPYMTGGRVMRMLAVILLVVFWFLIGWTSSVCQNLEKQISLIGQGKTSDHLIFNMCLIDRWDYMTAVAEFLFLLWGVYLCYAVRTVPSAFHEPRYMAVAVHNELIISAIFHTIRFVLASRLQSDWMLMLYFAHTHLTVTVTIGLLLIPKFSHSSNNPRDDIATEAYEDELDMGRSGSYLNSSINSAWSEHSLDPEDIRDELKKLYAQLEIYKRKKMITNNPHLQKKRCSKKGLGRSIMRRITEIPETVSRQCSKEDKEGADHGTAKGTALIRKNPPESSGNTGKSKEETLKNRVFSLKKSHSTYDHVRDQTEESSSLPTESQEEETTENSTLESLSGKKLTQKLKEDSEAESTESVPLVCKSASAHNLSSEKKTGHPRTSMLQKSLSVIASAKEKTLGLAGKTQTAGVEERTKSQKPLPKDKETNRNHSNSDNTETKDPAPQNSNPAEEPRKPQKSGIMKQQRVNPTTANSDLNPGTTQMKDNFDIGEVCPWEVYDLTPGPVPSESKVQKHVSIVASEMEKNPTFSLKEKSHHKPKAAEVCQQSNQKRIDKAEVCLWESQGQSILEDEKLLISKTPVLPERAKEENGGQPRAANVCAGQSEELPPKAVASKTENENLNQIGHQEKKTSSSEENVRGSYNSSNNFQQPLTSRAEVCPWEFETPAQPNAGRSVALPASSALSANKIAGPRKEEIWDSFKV

GPR158 [3] = biological target: T1, GPR158; remark: listed apart in the source
[4] = tested on: layer II-III neurons in the prelimbic cortex; assay: Slice electrophysiology, intrinsic excitability of cortical neurons; format: cell-based, mice
GPR158 [5] = biological target: T1, GPR158; remark: listed apart in the source
GPR158 [6] = biological target: T1, GPR158; assay: BRET-based cAMP biosensor screen in HEK293 cells expressing GPR158; format: cell-based; details: for cAMP change in cells expressing GPR158 relative to non-transfected cells: BRET cAMP biosensor
GPR158-RGS7/Gβ5 complex = biological target: T2, GPR158-RGS7/Gβ5 complex (Homo sapiens, UniProt Q5T848); assay: BRET-based GAP assay; format: cell-based
T2 sequence (Q5T848 24-1215): T1 sequence (Q5T848 24-1215)
T2 sequence (P49802 1-495 partner): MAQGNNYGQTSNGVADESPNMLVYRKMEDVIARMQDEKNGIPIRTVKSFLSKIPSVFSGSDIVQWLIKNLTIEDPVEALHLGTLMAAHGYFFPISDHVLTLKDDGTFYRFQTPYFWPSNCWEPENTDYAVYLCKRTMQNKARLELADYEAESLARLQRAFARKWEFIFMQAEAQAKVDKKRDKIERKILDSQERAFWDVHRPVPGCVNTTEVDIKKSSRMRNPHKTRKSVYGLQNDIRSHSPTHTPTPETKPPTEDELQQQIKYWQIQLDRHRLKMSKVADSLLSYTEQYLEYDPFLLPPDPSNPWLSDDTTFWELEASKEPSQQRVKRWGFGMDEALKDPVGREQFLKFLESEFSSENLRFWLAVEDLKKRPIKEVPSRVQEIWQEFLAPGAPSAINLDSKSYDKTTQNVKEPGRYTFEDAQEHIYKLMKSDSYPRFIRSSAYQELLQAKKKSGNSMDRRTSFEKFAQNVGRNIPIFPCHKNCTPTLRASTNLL
T2 sequence (O14775 1-395 partner): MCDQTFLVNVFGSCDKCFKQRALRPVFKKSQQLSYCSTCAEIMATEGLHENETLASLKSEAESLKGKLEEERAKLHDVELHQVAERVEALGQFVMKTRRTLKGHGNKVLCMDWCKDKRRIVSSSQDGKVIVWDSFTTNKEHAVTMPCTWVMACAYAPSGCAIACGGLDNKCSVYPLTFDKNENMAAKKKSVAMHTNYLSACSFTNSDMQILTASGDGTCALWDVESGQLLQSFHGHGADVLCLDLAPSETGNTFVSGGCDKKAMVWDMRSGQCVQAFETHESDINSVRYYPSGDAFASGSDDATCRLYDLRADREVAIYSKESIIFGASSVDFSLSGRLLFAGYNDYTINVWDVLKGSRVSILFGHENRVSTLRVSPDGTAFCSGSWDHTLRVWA

GPR158 [7] = biological target: T1, GPR158; assay: Binding competition, displacement of [3H]-glycine bound to GPR158
GPR158 [8] = biological target: T1, GPR158; assay: G protein activation by GPR158; format: cell-based; details: any G proteins tested

## NCC(=O)O [[^3H]-glycine, reference compound]
[1]
  [3H]-glycine binding to mutants: near complete loss
GPR158 [2]; HEK293 cells expressing GPR158, across concentrations
  binding to GPR158-expressing cells: significant binding

## NCC(=O)O [glycine]
GPR158 [3]; U87 glioblastoma cells lacking GPR158, glycine 100μM
  cAMP change in cells lacking GPR158: No glycine-induced changes in cAMP
GPR158 [3]; U87 glioblastoma cells, 10μM forskolin, glycine 100μM
  cAMP change in cells expressing GPR158: cAMP decrease
[4]; layer II-III neurons
  resting membrane potential: without changes
[4]; layer II-III neurons, glycine 1mM
  amount of current necessary to elicit the first action potential (rheobase): decreasing
[4]; layer II-III neurons, glycine 1mM, synaptic blockade
  number of action potentials: significantly increased
[4]; layer V neurons, which do not express GPR158
  intrinsic excitability of layer V neurons: did not produce any changes
[4]; prefrontal cortex, Gpr158 KO mice, glycine 1mM
  excitability of layer II-III neurons in Gpr158 KO mice: failed to alter excitability
GPR158 [5]
  β-arrestin recruitment to GPR158: no significant response
GPR158 [6]
  cAMP change in cells expressing GPR158 relative to non-transfected cells: significant decrease in cAMP
GPR158-RGS7/Gβ5 complex; 100μM
  effect on Gαo deactivation, GPR158 co-expressed with RGS7/Gβ5: significantly decelerated Gαo deactivation
GPR158-RGS7/Gβ5 complex; cells without GPR158, 100μM
  effect on baseline or RGS7/Gβ5-assisted Gαo deactivation without GPR158: no effect
GPR158 [7]; read-out: IC50, displacement of [3H]-glycine bound to GPR158
  IC50: ~3 µM
GPR158 [2]; read-out: Kd of GPR158 for glycine, Scatchard analysis, membranes containing GPR158
  Kd: ~3 µM
GPR158 [8]
  activation of G proteins by GPR158: no significant activation

## NCCS(=O)(=O)O [taurine]
[4]; taurine
  excitability (neuronal firing) of layer II-III neurons: small effects on neuronal firing
GPR158 [6]
  effect on GPR158-mediated suppression of cAMP compared directly with glycine: weaker than the effect of glycine
  cAMP change in cells expressing GPR158 relative to non-transfected cells: significant decrease in cAMP levels
GPR158-RGS7/Gβ5 complex
  IC50: ~6 µM
GPR158 [7]
  IC50: ~6 µM
GPR158 [7]; competition with [3H]-glycine
  affinity relative to glycine: two-fold lower affinity
GPR158 [8]
  activation of G proteins by GPR158: no significant activation
